Measured values taken from patent publication US8222278B2, “Treatment of attention-deficit/hyperactivity disorder” (Abbott Laboratories, priority 2008, dated 2012).

Test system: adults with ADHD
Test: Study A: treatment-emergent adverse events (safety dataset)
Procedure: During each visit, blood pressure, heart rate, weight, medication accountability and tolerability, and adverse effects were assessed.
The safety dataset consisted of all subjects who took at least one dose of study drug. The reasons for discontinuation and the treatment-emergent adverse events were summarized by the treatment under which the discontinuation or event was reported.
Treatment-emergent adverse events were those that began or worsened following the first dose of study drug in Period 1. Adverse event monitoring was conducted at each study visit and until 30 days following discontinuation of study drug. Other routine safety assessments included vital signs, electrocardiograms, physical examinations, brief neurological examinations and laboratory tests.

Clc1cc(N2C[C@@H]3CN[C@@H]3C2)cnc1Cl [ABT-894, 3-(5,6-Dichloro-pyridin-3-yl)-1S,5S-3,6-diazabicyclo[3.2.0]heptane]
Headache, % of subjects (ABT-894 4 mg BID, N = 46): (8.7) % | Headache, number of subjects (ABT-894 4 mg BID, N = 46): 4 subjects | Lethargy, % of subjects (ABT-894 4 mg BID, N = 46): (0) % | Lethargy, number of subjects (ABT-894 4 mg BID, N = 46): 0 subjects | Muscle Strain, % of subjects (ABT-894 4 mg BID, N = 46): (0) % | Muscle Strain, number of subjects (ABT-894 4 mg BID, N = 46): 0 subjects | Nasal congestion, % of subjects (ABT-894 4 mg BID, N = 46): (6.5) % | Nasal congestion, number of subjects (ABT-894 4 mg BID, N = 46): 3 subjects | Nausea, % of subjects (ABT-894 4 mg BID, N = 46): (8.7) % | Nausea, number of subjects (ABT-894 4 mg BID, N = 46): 4 subjects | Parathesia, % of subjects (ABT-894 4 mg BID, N = 46): (0) % | Parathesia, number of subjects (ABT-894 4 mg BID, N = 46): 0 subjects | Sleep disturbances, % of subjects (ABT-894 4 mg BID, N = 46): (4.3) % | Sleep disturbances, number of subjects (ABT-894 4 mg BID, N = 46): 2 subjects | Somnolence, % of subjects (ABT-894 4 mg BID, N = 46): (4.3) % | Somnolence, number of subjects (ABT-894 4 mg BID, N = 46): 2 subjects | Upper RTI, % of subjects (ABT-894 4 mg BID, N = 46): (0) % | Upper RTI, number of subjects (ABT-894 4 mg BID, N = 46): 0 subjects | Vomiting, % of subjects (ABT-894 4 mg BID, N = 46): (2.2) % | Vomiting, number of subjects (ABT-894 4 mg BID, N = 46): 1 subjects | Any Adverse Event, % of subjects (ABT-894 4 mg QD, N = 40): (65.0) % | Any Adverse Event, number of subjects (ABT-894 4 mg QD, N = 40): 26 subjects | Decreased appetite, % of subjects (ABT-894 4 mg QD, N = 40): (5.0) % | Decreased appetite, number of subjects (ABT-894 4 mg QD, N = 40): 2 subjects | Diarrhea, % of subjects (ABT-894 4 mg QD, N = 40): (7.5) % | Diarrhea, number of subjects (ABT-894 4 mg QD, N = 40): 3 subjects | Dizziness, % of subjects (ABT-894 4 mg QD, N = 40): (10.0) % | Dizziness, number of subjects (ABT-894 4 mg QD, N = 40): 4 subjects | Dry mouth, % of subjects (ABT-894 4 mg QD, N = 40): (0) % | Dry mouth, number of subjects (ABT-894 4 mg QD, N = 40): 0 subjects | Fatigue, % of subjects (ABT-894 4 mg QD, N = 40): (5.0) % | Fatigue, number of subjects (ABT-894 4 mg QD, N = 40): 2 subjects | Feeling hot and cold, % of subjects (ABT-894 4 mg QD, N = 40): (0) % | Feeling hot and cold, number of subjects (ABT-894 4 mg QD, N = 40): 0 subjects | Feeling jittery, % of subjects (ABT-894 4 mg QD, N = 40): (0) % | Feeling jittery, number of subjects (ABT-894 4 mg QD, N = 40): 0 subjects | Headache, % of subjects (ABT-894 4 mg QD, N = 40): (12.5) % | Headache, number of subjects (ABT-894 4 mg QD, N = 40): 5 subjects | Lethargy, % of subjects (ABT-894 4 mg QD, N = 40): (2.5) % | Lethargy, number of subjects (ABT-894 4 mg QD, N = 40): 1 subjects | Muscle Strain, % of subjects (ABT-894 4 mg QD, N = 40): (0) % | Muscle Strain, number of subjects (ABT-894 4 mg QD, N = 40): 0 subjects | Nasal congestion, % of subjects (ABT-894 4 mg QD, N = 40): (0) % | Nasal congestion, number of subjects (ABT-894 4 mg QD, N = 40): 0 subjects | Nausea, % of subjects (ABT-894 4 mg QD, N = 40): (22.5) % | Nausea, number of subjects (ABT-894 4 mg QD, N = 40): 9 subjects | Parathesia, % of subjects (ABT-894 4 mg QD, N = 40): (0) % | Parathesia, number of subjects (ABT-894 4 mg QD, N = 40): 0 subjects | Sleep disturbances, % of subjects (ABT-894 4 mg QD, N = 40): (7.5) % | Sleep disturbances, number of subjects (ABT-894 4 mg QD, N = 40): 3 subjects | Somnolence, % of subjects (ABT-894 4 mg QD, N = 40): (0) % | Somnolence, number of subjects (ABT-894 4 mg QD, N = 40): 0 subjects | Upper RTI, % of subjects (ABT-894 4 mg QD, N = 40): (7.5) % | Upper RTI, number of subjects (ABT-894 4 mg QD, N = 40): 3 subjects | Vomiting, % of subjects (ABT-894 4 mg QD, N = 40): (10.0) % | Vomiting, number of subjects (ABT-894 4 mg QD, N = 40): 4 subjects | Any Adverse Event, number of subjects (Total ABT-894, N = 174): 109 subjects | Decreased appetite, % of subjects (Total ABT-894, N = 174): (1.1) % | Decreased appetite, number of subjects (Total ABT-894, N = 174): 2 subjects | Diarrhea, % of subjects (Total ABT-894, N = 174): (3.4) % | Diarrhea, number of subjects (Total ABT-894, N = 174): 6 subjects | Dizziness, % of subjects (Total ABT-894, N = 174): (6.3) % | Dizziness, number of subjects (Total ABT-894, N = 174): 11 subjects | Dry mouth, % of subjects (Total ABT-894, N = 174): (1.7) % | Dry mouth, number of subjects (Total ABT-894, N = 174): 3 subjects | Fatigue, % of subjects (Total ABT-894, N = 174): (5.2) % | Fatigue, number of subjects (Total ABT-894, N = 174): 9 subjects | Feeling hot and cold, % of subjects (Total ABT-894, N = 174): (0) % | Feeling hot and cold, number of subjects (Total ABT-894, N = 174): 0 subjects | Feeling jittery, % of subjects (Total ABT-894, N = 174): (0) % | Feeling jittery, number of subjects (Total ABT-894, N = 174): 0 subjects | Headache, % of subjects (Total ABT-894, N = 174): (10.3) % | Headache, number of subjects (Total ABT-894, N = 174): 18 subjects | Lethargy, % of subjects (Total ABT-894, N = 174): (0.6) % | Lethargy, number of subjects (Total ABT-894, N = 174): 1 subjects | Muscle Strain, % of subjects (Total ABT-894, N = 174): (1.7) % | Muscle Strain, number of subjects (Total ABT-894, N = 174): 3 subjects | Nasal congestion, % of subjects (Total ABT-894, N = 174): (1.7) % | Nasal congestion, number of subjects (Total ABT-894, N = 174): 3 subjects | Nausea, number of subjects (Total ABT-894, N = 174): 21 subjects | Parathesia, % of subjects (Total ABT-894, N = 174): (0) % | Parathesia, number of subjects (Total ABT-894, N = 174): 0 subjects | Sleep disturbances, % of subjects (Total ABT-894, N = 174): (7.5) % | Sleep disturbances, number of subjects (Total ABT-894, N = 174): 13 subjects | Somnolence, % of subjects (Total ABT-894, N = 174): (4.6) % | Somnolence, number of subjects (Total ABT-894, N = 174): 8 subjects | Upper RTI, % of subjects (Total ABT-894, N = 174): (4.0) % | Upper RTI, number of subjects (Total ABT-894, N = 174): 7 subjects | Vomiting, % of subjects (Total ABT-894, N = 174): (3.4) % | Vomiting, number of subjects (Total ABT-894, N = 174): 6 subjects | Safety and tolerability (adults with ADHD, all doses): generally was safe and well tolerated
